{"source": "paper PMC12626222", "about": "“Benzoic and salicylic acids inhibit β-substituted alanine synthase 4;1 in common bean” (Plant Physiology, 2025)", "key": {"[1]": {"target": "T1, PvBSAS4;1 (beta-substituted alanine synthase 4;1, cytosolic cysteine synthase) (Phaseolus vulgaris, UniProt V7BIJ9)", "T1 construct": "gene PHAVU_007G185200g", "T1 sequence (V7BIJ9 entry or part of it)": "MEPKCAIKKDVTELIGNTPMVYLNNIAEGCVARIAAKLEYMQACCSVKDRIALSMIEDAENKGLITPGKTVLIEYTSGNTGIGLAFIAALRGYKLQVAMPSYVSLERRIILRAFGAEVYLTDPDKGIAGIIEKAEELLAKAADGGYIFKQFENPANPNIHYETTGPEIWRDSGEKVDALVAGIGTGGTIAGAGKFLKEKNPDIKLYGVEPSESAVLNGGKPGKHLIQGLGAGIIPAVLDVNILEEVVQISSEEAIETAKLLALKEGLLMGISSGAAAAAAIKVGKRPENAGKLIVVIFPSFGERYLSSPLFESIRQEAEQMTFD", "test": "acid-ninhydrin colorimetric assay of cysteine formation, […] nm", "type": "biochemical"}, "[2]": {"target": "T1, PvBSAS4;1 (beta-substituted alanine synthase 4;1, cytosolic cysteine synthase)", "test": "X-ray crystal structure, […] Å", "type": "binding"}, "[3]": {"target": "T1, PvBSAS4;1 (beta-substituted alanine synthase 4;1, cytosolic cysteine synthase)", "test": "acid-ninhydrin colorimetric assay, Lineweaver-Burk plot", "type": "biochemical", "conditions": "2 to 8 mM O-acetylserine, 1.5 mM sodium sulfide, 100 mM MOPSO pH 7.0, 25 °C; apparent values plotted against benzoic acid concentration"}}, "data": [{"smiles": "O=C(O)c1ccccc1O", "note": "[salicylic acid]", "values": [{"measurement": "IC50", "setting": "[1]", "value": 600, "unit": "µM"}]}, {"smiles": "O=C(O)c1ccccc1", "note": "[BEZ, benzoic acid]", "values": [{"measurement": "IC50", "setting": "[1]", "value": "~600", "unit": "µM"}, {"measurement": "X-ray crystal structure, 1.60 Å", "setting": "[2]; co-purified from E. coli, active site, near PLP (internal aldimine), carboxylate bound by Thr76, Ser77, Asn79, Thr80, Gln150", "value": "contains the PLP prosthetic group and a molecule of benzoic acid (Fig. 3A)"}]}, {"smiles": "Cc1ncc(COP(=O)(O)O)c(C=O)c1O", "note": "[PLP, pyridoxal 5′-phosphate]", "values": [{"measurement": "X-ray crystal structure, 1.60 Å", "setting": "[2]; covalent internal aldimine with Lys48, co-purified", "value": "PLP is stabilized by a covalent bond to Lys48, creating an internal aldimine"}]}, {"smiles": "CC(=O)OC[C@H](N)C(=O)O", "note": "[OAS, O-acetylserine]", "values": [{"measurement": "Ks app", "setting": "[3]", "value": "the replot of Ks app versus the concentration of inhibitor"}]}]}
